These results are taken from US4666931A, “Benzofuran derivatives useful in treating diabetic complications” (Kaken Pharmaceutical Co., Ltd., priority 1984, dated 1987).

Experiment [1] concerns the target T1, aldose reductase from rat lens (Rattus norvegicus, UniProt P07943).
T1 construct: the supernatant was prepared as the crude enzyme solution; from tissue; host or cells: lens of male Wistar rats, 10,000 g supernatant of homogenate (crude enzyme)
Nature of the experiment: Aldose reductase inhibiting activity. Type of experiment: biochemical. To be noted: DL-glyceraldehyde substrate, Table 2, read-out: IC50 (50% inhibition concentration in M). On the procedure:
Wistar male rats were sacrificed by decapitation and the lenses were taken out to be homogenized with a 0.1M phosphate buffer [pH 6.8, containing 1 mM of mercaptoethanol and 1 mM of nicotinamide-adenine dinucleotide phosphate (NADP)]. The homogenate was then centrifuged at 10,000 g for 15 minutes and the supernatant was prepared as the crude enzyme solution.

Experiment [2] relates to aggregation of the washed rabbit platelet by thrombin. Nature of the experiment: Platelet aggregation inhibiting activity (washed rabbit platelet, thrombin). Type of experiment: cell-based. The following applies: for pIC50: Oryctolagus cuniculus, Platelet; for platelet aggregation inhibiting activity relative to Persantin: compared with Persantin (dipyridamole). On the procedure: Blood samples were collected from the auricular blood vessel of rabbits (white local breed), and washed platelets were prepared therefrom by the method of Baenziger et al. (N. L. Baenziger and P. W. Majerus, Methods Enzymol., 31, 149 to 155 (1974). The platelets were suspended in a 15 mM Tris-hydrochloric acid buffer with a final concentration of 6×10^8 cells/ml (Tris: tris(hydroxymethyl)aminomethane). Each test compound of the compound Nos. 5, 8, 9, 11, 23, 29, 30 and 33 and Persantin® was added thereto and incubation was carried out at 37° C. for 2 minutes. Then the platelets were stimulated by addition of thrombin (0.2 unit/ml of final concentration; made by Mochida Pharmaceutical Co.) and the aggregation inhibiting activity was estimated by the observation of the aggregation reaction using an aggregometer (made by Briston Co.).
The results are shown in Table 3 in terms of IC50 (50% inhibiton concentration in M).

The subject of experiment [3] is production of malondialdehyde from arachidonic acid by rabbit platelets. Kind of experiment: Arachidonic acid metabolism inhibiting activity: production of malondialdehyde from arachidonic acid by rabbit platelets. To be noted: Oryctolagus cuniculus, Platelet, arachidonic acid 0.2 mM, read-out: concentration showing 50% inhibition against the production of malondialdehyde from arachidonic acid. It counts as cell-based. As to the method: Washed rabbit platelets prepared as in the platelet aggregation inhibiting activity test were suspended in 15 mM Tris-hydrochloric acid buffer with a final concentration of 1×10^8 cell/ml, to which each test compound of the compound Nos. 8, 13, 14, 19, 20, 23, 29, 30 and 33 were added and the resultant was preincubated at 37° C. for five minutes. Then arachidonic acid (a final concentration: 0.2 mM, made by Sigma Chemical Co.) was added thereto and the mixture was preincubated for 1 minute. An amount of the produced malondialdehyde was measured according to the thiobarbiturates method (Ed. Aoki and Shibata, Ketsuekigaku Kenkyukensaho, P 441 to 447).

In another experiment the test system is cyclooxygenase. Kind of experiment: Cyclooxygenase inhibition: malondialdehyde production from arachidonic acid, 9000 G supernatant of lung homogenate from guinea pig. Type of experiment: biochemical. The following applies: guinea pig lung 9000 G supernatant, compared with aspirin. As to the method:
Lung from guinea pig was washed with physiological saline and homogenized in 0.1M Tris-hydrochloric acid buffer to prepare a supernatant by cooled centrifugation (9000 G).
The inhibiting activity against cyclooxygenase was measured by using the 9000 G supernatant as a source of cyclooxygenase in the presence of 1 mM epinephiline.

Setting [4] is: washed rabbit platelets, thrombin 0.2 unit/ml, 37° C., Table 3, read-out: IC50 (50% inhibition concentration in M).
The mark [5] stands for this setting: range for nine compounds, read-out: concentration showing 50% inhibition against the aggregation of the washed rabbit platelet by thrombin.

pIC50: −log10 of the molar value. Where two headings read alike, the source gives them in different places.

With `COc1ccc(S(=O)(=O)NCC(=O)O)c2cc(C(C)=O)oc12` [Compound 1, 2-acetyl-4-(N-carboxymethylsulfamoyl)-7-methoxybenzofuran], the pIC50 in experiment [1] is 6.70.
Turning to `CCOc1ccc(S(=O)(=O)NCC(=O)O)c2cc(C(C)=O)oc12` [Compound 2, 2-acetyl-4-(N-carboxymethylsulfamoyl)-7-ethoxybenzofuran], the pIC50 in experiment [1] was 7.00.
As to `CCCCOc1ccc(S(=O)(=O)NCC(=O)O)c2cc(C(C)=O)oc12` [Compound 4, 2-acetyl-4-(N-carboxymethylsulfamoyl)-7-n-butoxybenzofuran], the pIC50 in experiment [1] is 7.40.
Same read-out and setting: the same measure for `CCCCCCOc1ccc(S(=O)(=O)NCC(=O)O)c2cc(C(C)=O)oc12` [Compound 6, 2-acetyl-4-(N-carboxymethylsulfamoyl)-7-n-hexyloxybenzofuran]: 7.30.
Regarding `CCCCCCCOc1ccc(S(=O)(=O)NCC(=O)O)c2cc(C(C)=O)oc12` [Compound 7, 2-acetyl-4-(N-carboxymethylsulfamoyl)-7-n-heptyloxybenzofuran], the pIC50 in experiment [1] is 7.52; in experiment [2] (setting [4]), 3.82.
Turning to `CC(=O)c1cc2c(S(=O)(=O)NCC(=O)O)ccc(OCC(=O)O)c2o1` [Compound 8, 2-acetyl-4-(N-carboxymethylsulfamoyl)-7-(carboxymethoxy)benzofuran], the pIC50 in experiment [1] was 6.70; in experiment [2] (setting [5]) it was 3.70 to 4.70; in experiment [2] (setting [4]) it was 3.89; in experiment [3] it was 4.00 to 5.00. Further, in experiment [2], the “platelet aggregation inhibiting activity relative to Persantin” value was “equivalent to or more than”. For the same compound, the “inhibition against malondialdehyde production relative to aspirin” value in the experiment with cyclooxygenase is listed as “equivalent to or more than”.
With `CCCCOc1ccc(S(=O)(=O)N(C)C(C)C(=O)O)c2cc(C(C)=O)oc12` (stereo not shown) [Compound 10, 2-acetyl-4-(N-methyl-N-(1-carboxyethyl)sulfamoyl)-7-n-butoxybenzofuran], the pIC50 was 5.15 in experiment [1], 3.70 to 4.70 in experiment [2] (setting [5]) and 3.80 in experiment [2] (setting [4]). Also, the “platelet aggregation inhibiting activity relative to Persantin” value in experiment [2] is “equivalent to or more than”.
On to `CCCCOc1ccc(S(=O)(=O)NC(C)C(=O)O)c2cc(C(C)=O)oc12` (stereo not shown) [Compound 11, 2-acetyl-4-(N-(1-carboxyethyl)sulfamoyl)-7-n-butoxybenzofuran], for which the pIC50 is 5.30 in experiment [1], 3.70 to 4.70 in experiment [2] (setting [5]) and 3.80 in experiment [2] (setting [4]). Besides, the “platelet aggregation inhibiting activity relative to Persantin” value in experiment [2] is “equivalent to or more than”.
Consider `O=C(O)CNS(=O)(=O)c1ccc(OCC(=O)O)c2oc(C(=O)O)cc12` [Compound 12, 2-carboxy-4-(N-carboxymethylsulfamoyl)-7-(carboxymethoxy)benzofuran], for which the pIC50 in experiment [1] was 6.70.
As for `COc1ccc(S(=O)(=O)NCC(=O)O)c2cc(C(=O)O)oc12` [Compound 13, 2-carboxy-4-(N-carboxymethylsulfamoyl)-7-methoxybenzofuran], the pIC50 is 7.00 in experiment [1] and 4.00 to 5.00 in experiment [3]. Moreover, in the experiment on cyclooxygenase, the “inhibition against malondialdehyde production relative to aspirin” value is listed as “equivalent to or more than”.
In the case of `CCOc1ccc(S(=O)(=O)NCC(=O)O)c2cc(C(=O)O)oc12` [Compound 14, 2-carboxy-4-(N-carboxymethylsulfamoyl)-7-ethoxybenzofuran], the pIC50 in experiment [1] was 7.15; in experiment [3], 4.00 to 5.00. The “inhibition against malondialdehyde production relative to aspirin” value in the experiment on cyclooxygenase is “equivalent to or more than”.
Take `CC(=O)c1cc2c(S(=O)(=O)NCC(=O)O)ccc(C)c2o1` [Compound 15, 2-acetyl-4-(N-carboxymethylsulfamoyl)-7-methylbenzofuran]: in experiment [1], the pIC50 was 6.30.
On the same count and under the same terms, the same measure for `CCC(C)c1ccc(S(=O)(=O)NCC(=O)O)c2cc(C(C)=O)oc12` (stereo not shown) [Compound 16, 2-acetyl-4-(N-carboxymethylsulfamoyl)-7-sec-butylbenzofuran]: 6.40.
As to `CC(=O)c1cc2c(S(=O)(=O)NCC(=O)O)c3c(cc2o1)OCO3` [Compound 17, 2-acetyl-4-(N-carboxymethylsulfamoyl)-5,6-methylenedioxybenzofuran], the pIC50 in experiment [1] is 5.70.
For the compound `COc1ccc(S(=O)(=O)NCC(=O)O)c2oc(C(C)=O)cc12` [Compound 18, 2-acetyl-4-methoxy-7-(N-carboxymethylsulfamoyl)benzofuran], the pIC50 in experiment [1] was 5.30.
In the case of `COc1ccc(S(=O)(=O)NCC(=O)O)c2cc(C3(C)NC(=O)NC3=O)oc12` (stereo not shown) [Compound 19, 2-(4-methyl-2,5-dioxoimidazolidine-4-yl)-4-(N-carboxymethylsulfamoyl)-7-methoxybenzofuran], the pIC50 in experiment [1] is 5.70; in experiment [3], 4.00 to 5.00. Also, in the experiment with cyclooxygenase, the “inhibition against malondialdehyde production relative to aspirin” value was “equivalent to or more than”.
Turning to `COc1c(S(=O)(=O)NCC(=O)O)cc(S(=O)(=O)NCC(=O)O)c2cc(C3(C)NC(=O)NC3=O)oc12` (stereo not shown) [Compound 20, 2-(4-methyl-2,5-dioxoimidazolidine-4-yl)-4,6-di(N-carboxymethylsulfamoyl)-7-methoxybenzofuran], the pIC50 in experiment [1] is 6.52; in experiment [3], 4.00 to 5.00. Besides, the “inhibition against malondialdehyde production relative to aspirin” value with cyclooxygenase is “equivalent to or more than”.
With `CCc1oc2ccc(NC(C)=O)cc2c1S(=O)(=O)NCC(=O)O` [Compound 22, 2-ethyl-3-(N-carboxymethylsulfamoyl)-5-acetylaminobenzofuran], in experiment [1], the pIC50 is 7.30.
The same measure, in the same setting: the same measure for `COc1ccc(COc2ccc(S(=O)(=O)NCC(=O)O)c3cc(C(C)=O)oc23)cc1` [Compound 24, 2-acetyl-4-(N-carboxymethylsulfamoyl)-7-p-methoxybenzyloxybenzofuran]: 7.52.
On the same count and under the same terms, the same measure for `CC(=O)c1cc2c(S(=O)(=O)NCC(=O)O)ccc(OCC(C)Cl)c2o1` (stereo not shown) [Compound 25, 2-acetyl-4-(N-carboxymethylsulfamoyl)-7-(2-chloropropyloxy)benzofuran]: 6.70; for `CC(=O)c1cc2c(S(=O)(=O)NCC(=O)O)ccc(OCC#N)c2o1` [Compound 27, 2-acetyl-4-(N-carboxymethylsulfamoyl)-7-cyanomethyloxybenzofuran]: 7.00.
For the compound `CC(=O)c1cc2c(S(=O)(=O)NCC(=O)O)ccc(O)c2o1` [Compound 28, 2-acetyl-4-(N-carboxymethylsulfamoyl)-7-hydroxybenzofuran], the pIC50 in experiment [1] is 7.10.
As for `CC(=O)c1cc2c(S(=O)(=O)NCC(=O)O)ccc(OCc3ccc(Cl)cc3)c2o1` [Compound 30, 2-acetyl-4-(N-carboxymethylsulfamoyl)-7-p-chlorobenzyloxybenzofuran], the pIC50 was 7.40 in experiment [1], 3.70 to 4.70 in experiment [2] (setting [5]), 4.52 in experiment [2] (setting [4]) and 4.00 to 5.00 in experiment [3]. Further, the “platelet aggregation inhibiting activity relative to Persantin” value in experiment [2] is “equivalent to or more than”. Moreover, in the experiment on cyclooxygenase, the “inhibition against malondialdehyde production relative to aspirin” value is listed as “equivalent to or more than”.
As to `C=CCOc1ccc(S(=O)(=O)NCC(=O)O)c2cc(C(C)=O)oc12` [Compound 31, 2-acetyl-4-(N-carboxymethylsulfamoyl)-7-allyloxybenzofuran], the pIC50 in experiment [1] was 7.30.
`C=CCCOc1ccc(S(=O)(=O)NCC(=O)O)c2cc(C(C)=O)oc12` [Compound 32, 2-acetyl-4-(N-carboxymethylsulfamoyl)-7-(3-butenyloxy)benzofuran]: in experiment [1], the pIC50 was 7.52.
In the case of `COc1ccc(COc2ccc(S(=O)(=O)N(CC(=O)O)Cc3ccc(OC)cc3)c3cc(C(C)=O)oc23)cc1` [Compound 33, 2-acetyl-4-(N-p-methoxybenzyl-N-carboxymethylsulfamoyl)-7-p-methoxybenzyloxybenzofuran], the pIC50 in experiment [1] was 6.10; in experiment [2] (setting [5]) it was 3.70 to 4.70; in experiment [2] (setting [4]), 4.70; in experiment [3], 4.00 to 5.00. Also, the “platelet aggregation inhibiting activity relative to Persantin” value in experiment [2] is “equivalent to or more than”. In addition, in the experiment on cyclooxygenase, the “inhibition against malondialdehyde production relative to aspirin” value is “equivalent to or more than”.
Take `CC(=O)c1cc2c(S(=O)(=O)N(CC(=O)O)Cc3ccccc3)ccc(OCc3ccccc3)c2o1` [Compound 35, 2-acetyl-4-(N-benzyl-N-carboxymethylsulfamoyl)-7-benzyloxybenzofuran]: the pIC50 in experiment [1] is 6.15.
Turning to `OCCN(CCO)c1nc(N2CCCCC2)c2nc(N(CCO)CCO)nc(N3CCCCC3)c2n1` [Persantin ®, dipyridamole, reference compound], in experiment [2] (setting [4]), the pIC50 is 3.70.
